These results are taken from paper PMC6505380, “An Extensively Humanized Mouse Model to Predict Pathways of Drug Disposition and Drug/Drug Interactions, and to Facilitate Design of Clinical Trials” (Drug Metabolism and Disposition, 2019).

Series [1] has as its system CYP2D6. In words: Kinetic parameters of 4-hydroxyl debrisoquine formation in liver microsomes (HLM, 8HUM). It is filed as in vitro ADME. The settings on record: pooled human liver microsomes (HLM). As to the method: All samples were handled in amber tubes under conditions of subdued light for the duration of the procedure. […] The samples were then centrifuged at 3000g for 55 minutes at 4°C and an aliquot of the supernatant fraction was analyzed by LC-MS/MS.
Calibration curves were constructed with authentic metabolite standards and linear regression analysis used to calculate the amount of metabolite formed in each test sample. […] The 7-ethoxyresorufin O-deethylation assay was carried out as detailed below.
Background: Liver microsomes are vesicles of endoplasmic reticulum, rich in cytochrome P450 enzymes.

For series [2] the following is noted: female, 8HUM, mouse, in vivo.
Experimental: Blood sampling and analysis was carried out as described above and in Supplemental Data.
Series [3] has as its system CYP2D6. Also on record: method as in VandenBrink et al., 2012. The settings on record: man; ref VandenBrink et al., 2012; cited from earlier work.
For the next series, the system named is Cyp2b10. In words: Murine Cyp2b10 expression in humanized mice after treatment (immunoblot). The settings on record: 8HUM mice, dabrafenib 10 mg/kg. The series is classed as in vivo, mouse. As to the method: We therefore sought to identify a specific, clinically relevant PXR agonist that was nontoxic. […] Subsequent studies were therefore undertaken using SJW to induce CYP3A4 expression in 8HUM mice.
(§1) Fig. 7. […] Arrow indicates position of Cyp2b10 band. GRP78 was used as a loading control.
Fig. 8. Effect of dabrafenib on midazolam pharmacokinetics in 8HUM mice. Adult female 8HUM mice (n = 3) were treated with vehicle or dabrafenib (10 mg/kg) PO daily for 2 days, and on day 3 were administered midazolam (3 mg/kg) PO and PK profiling carried out as described in Materials and Methods. (A) Pharmacokinetic profiling for midazolam in 8HUM mice receiving either vehicle (open circles) or dabrafenib (closed triangles). Data shown are mean ± S.D. (B) Immunoblotting of liver microsomes from 8HUM mice, untreated or treated as above, against mouse and human P450 isozymes. Dab, Dabrafenib; MDZ, midazolam; Unt, untreated; Veh, vehicle. One group of dabrafenib-treated mice (Dab) were sacrificed on day 3 without exposure to midazolam to determine the effects of dabrafenib on P450 expression at the start of the PK profiling. […] Std, standard, recombinant human P450 protein or phenobarbital-treated liver microsomes (Cyp2b10); HLM, human liver microsomes.
For orientation: Immunoblotting shows a protein as a band on a membrane.

For series [4], the system named is 8HUM liver microsomes. In words: Dibenzylfluorescein O-debenzylation in liver microsomes of dabrafenib-treated 8HUM mice. The series is classed as in vitro ADME, mouse. The settings on record: for Dibenzylfluorescein O-debenzylation: 8HUM liver microsomes, dabrafenib-treated. Here is the method: The O-debenzylation of dibenzylfluorescein (DBF) was measured as described above for the 7-methoxyresorufin O-demethylation assay, with the following modifications: the DBF concentration was 2 μM; the excitation filter was 485 nm; the emission filter was 530 nm; 20 pmol of the fluorescein was added to the control wells.
(§2) Fig. 8. Effect of dabrafenib on midazolam pharmacokinetics in 8HUM mice. […] Dab, Dabrafenib; MDZ, midazolam; Unt, untreated; Veh, vehicle.

Series [5] in a line: Dabrafenib pharmacokinetics in 8HUM mice: effect of rifampicin and ketoconazole. It is filed as in vivo, mouse. The settings on record: for Cmax / half-life / AUC: female, 8HUM, mouse, whole blood, po, 10 mg/kg, female 8HUM mice, dabrafenib 10 mg/kg PO; for AUC: read-out: AUC0 t. As to the method: Pharmacokinetic parameters were calculated by Phoenix WinNonlin version 8.0.0.3176 (Certara, Princeton, NJ).
Fig. 3.

Another series concerns Cytochrome c reductase. In words: Cytochrome c reductase activity in liver microsomes of dabrafenib-treated 8HUM mice. It is filed as in vitro ADME, mouse. The settings on record: 8HUM liver microsomes. As to the method:
A mixture of cytochrome c from bovine heart (40 μM) and mouse liver microsomes (∼7.6 μg/ml) in 0.3 M potassium phosphate buffer (pH 7.7) was incubated at 37°C for at least 2 minutes before the reaction was started by addition of NADPH (0.1 mM final concentration). The absorbance at 550 nm was recorded and the reaction rate calculated from the linear region of the absorbance time course. The extinction coefficient of 0.0211 μM^−1cm^−1 was used ([van Gelder and Slater, 1962]) to calculate concentration of the reduced cytochrome c.
as §2

For series [6], the target named is T1, CYP1A2 (Homo sapiens, UniProt P05177).
T1 sequence (P05177 1-516): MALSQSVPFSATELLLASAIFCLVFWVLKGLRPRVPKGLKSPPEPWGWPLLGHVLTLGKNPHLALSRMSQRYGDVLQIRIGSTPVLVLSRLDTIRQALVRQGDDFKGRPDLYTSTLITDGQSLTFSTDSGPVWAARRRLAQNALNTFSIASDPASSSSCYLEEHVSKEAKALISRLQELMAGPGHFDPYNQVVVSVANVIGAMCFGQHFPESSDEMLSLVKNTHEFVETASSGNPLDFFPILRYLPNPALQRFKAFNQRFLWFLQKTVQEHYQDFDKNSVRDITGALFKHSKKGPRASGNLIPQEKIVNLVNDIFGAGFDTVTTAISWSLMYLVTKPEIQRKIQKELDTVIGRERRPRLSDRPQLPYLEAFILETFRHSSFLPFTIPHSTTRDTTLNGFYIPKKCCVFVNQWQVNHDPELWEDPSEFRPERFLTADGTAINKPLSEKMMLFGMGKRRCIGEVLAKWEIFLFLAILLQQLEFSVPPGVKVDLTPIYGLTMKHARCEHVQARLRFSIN
In words: 7-Methoxyresorufin O-demethylation in liver microsomes of treated 8HUM mice. The settings on record: 8HUM liver microsomes, dabrafenib-treated.
Experimental: A mixture of either 7-methoxyresorufin or 7-ethoxyresorufin (1 μM) and 8HUM liver microsomes or HLM (∼0.38 mg protein/ml) in 100 mM potassium phosphate buffer (pH 7.4) supplemented with MgCl2 (3.3 mM) was incubated at 37°C for 5 minutes before the addition of NADPH (final concentration 1.2 mM). […] Slopes of the linear part of the kinetic curves were calculated using Ascent Software Version 2.4.1 (Labsystems). For each reaction two controls, with and without reaction product resorufin (40 pmol) were run. Fluorescence was measured from both control wells and the difference in fluorescence intensity between wells with and without resorufin was used for the conversion of the relative fluorescence units to the picomoles of the reaction product.

On the set-up of series [7]: method as in Suttle et al., 2015. The settings on record: patients, 150 mg twice per day, ref Suttle et al., 2015, cited from earlier work.
Series [8] has as its system 8HUM liver microsomes. In words: Dextromethorphan O-demethylation in liver microsomes of dabrafenib-treated 8HUM mice. It is filed as in vitro ADME, mouse. As to the method: After 5 minutes, the reaction was stopped by combining 100 μl of the reaction mixture with 120 μl of 0.2 M hydrochloric acid containing dextrorphan-d3 (92 ng/ml) as an internal standard. […] The concentrations of […] were measured by liquid chromatography–tandem mass spectrometry (LC-MS/MS). […] The multiple reaction monitoring parameters for dextrorphan and dextrorphan-d3 were 258.16 and 261.24 (precursor ions) and 157.04 (one product ion for both compounds), respectively.
as §2

The next series concerns CYP3A4. In words: Hepatic CYP3A4 expression in 8HUM mice after dabrafenib (immunoblot). The series is classed as in vivo, mouse. The settings on record: dabrafenib 10 mg/kg PO. Here is the method:
Female 8HUM mice received either two daily oral doses of dabrafenib (n = 3; 15 weeks; 10 mg/kg) or vehicle (n = 3; 16 weeks; 0.5% hydroxypropylmethylcellulose, 0.2% Tween 80). On day 3 both groups were administered midazolam (3 mg/kg) by oral gavage. Whole blood collection and sample preparation were performed as described above, and analytical details are described in Supplemental Data. A third group of female 8HUM mice (n = 3; 17–22 weeks) received two daily doses of dabrafenib (10 mg/kg) by oral gavage and were culled for tissue collection on day 3 to allow determination of the effects of dabrafenib on P450 expression at the start of the pharmacokinetic (PK) study.
as §1
Fig. 8. Effect of dabrafenib on midazolam pharmacokinetics in 8HUM mice. Adult female 8HUM mice (n = 3) were treated with vehicle or dabrafenib (10 mg/kg) PO daily for 2 days, and on day 3 were administered midazolam (3 mg/kg) PO and PK profiling carried out as described in Materials and Methods. (A) Pharmacokinetic profiling for midazolam in 8HUM mice receiving either vehicle (open circles) or dabrafenib (closed triangles). Data shown are mean ± S.D. (B) Immunoblotting of liver microsomes from 8HUM mice, untreated or treated as above, against mouse and human P450 isozymes. Dab, Dabrafenib; MDZ, midazolam; Unt, untreated; Veh, vehicle. […]

Series [9] has as its target T1, CYP1A2. In words: Enzyme inhibition assay, caffeine to paraxanthine (HLM, 8HUM microsomes). The settings on record: caffeine 220 μM in cocktail, furafylline 3, enoxacin 200, fluconazole 300, sulfaphenazole 3, quinidine 3, paroxetine 10, ketoconazole 1 μM. As to the method: (§3) After a 5-minute preincubation at 37°C, reactions were initiated by addition of NADPH (1.3 mM). […] The samples were then centrifuged at 3000g for 55 minutes at 4°C, and an aliquot of the supernatant fraction was analyzed by LC-MS/MS. All experiments were performed at least in triplicate.

The next series deals with CYP2C9 (Homo sapiens, UniProt P11712). In words: Enzyme inhibition assay, tolbutamide hydroxylation (HLM, 8HUM microsomes). The settings on record: tolbutamide 2 μM in cocktail, furafylline 3, enoxacin 200, fluconazole 300, sulfaphenazole 3, quinidine 3, paroxetine 10, ketoconazole 1 μM. As to the method: as §3
CYP2C9, sequence (P11712 whole entry): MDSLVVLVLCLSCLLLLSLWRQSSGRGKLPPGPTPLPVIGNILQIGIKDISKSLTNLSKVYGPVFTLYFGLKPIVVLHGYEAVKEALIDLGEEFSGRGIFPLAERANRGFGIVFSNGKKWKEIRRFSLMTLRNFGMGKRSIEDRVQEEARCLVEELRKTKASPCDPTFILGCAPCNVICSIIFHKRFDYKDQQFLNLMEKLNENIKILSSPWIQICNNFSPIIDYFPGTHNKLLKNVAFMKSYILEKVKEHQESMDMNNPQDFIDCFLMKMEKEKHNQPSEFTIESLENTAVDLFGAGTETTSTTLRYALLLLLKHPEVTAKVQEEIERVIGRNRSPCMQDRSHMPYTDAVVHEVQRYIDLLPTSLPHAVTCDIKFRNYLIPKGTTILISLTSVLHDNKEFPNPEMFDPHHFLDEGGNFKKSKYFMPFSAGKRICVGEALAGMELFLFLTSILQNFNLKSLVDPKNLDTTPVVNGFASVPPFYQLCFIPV
The conditions of series [10]: healthy volunteers; single dose of 200 mg ketoconazole 2 hours prior to midazolam; ref McCrea et al., 1999; cited from earlier work.
[11] abbreviates: Rifampicin 10 mg/kg i.p. daily for 3 days.
The mark [12] stands for this setting: Rifampicin + ketoconazole 20 mg/kg PO 30 minutes before.
Where [13] appears, read: Vehicle (corn oil) pretreatment.

Entries after “also recorded” stand apart in the source; their conditions may differ. Read-outs that look alike come from different tables or passages of the source.

In the case of `N=C(N)N1CCc2ccccc2C1` [Debrisoquine, debrisoquine], the Km at 40 min with CYP2D6 [1] (pH 7.4) amounted to 25 ± 7 µM. Further, in the series on CYP2D6 [1], the Vmax is listed as 25 ± 2 pmol/min per milligram protein. Moreover, the “CYP2D6 fm (fraction metabolized)” value in series [2] is 0.88.

With `CNCCCN1c2ccccc2CCc2ccccc21` [desipramine], the CYP2D6 fm in the series with CYP2D6 [3] is reported as 0.88.

On to `CC(C)(C)c1nc(-c2cccc(NS(=O)(=O)c3c(F)cccc3F)c2F)c(-c2ccnc(N)n2)s1` [dabrafenib], for which the “Induction of murine Cyp2b10” value with Cyp2b10 was “induced weakly”. Further, the “Dibenzylfluorescein O-debenzylation” value worked out at 440 ± 31 in the series with 8HUM liver microsomes [4] (24 h after final dose) and 151 ± 5 in the series with 8HUM liver microsomes [4] (48 h after final dose). Further, the “Increase of 7-benylfluorescein O-debenzylation” value in the series on 8HUM liver microsomes [4] (24 hours after the second dabrafenib dose, vs vehicle) was “approximately 5.5 fold”. In the series with 8HUM liver microsomes [4] (24 hours later (48 h after final dabrafenib dose), vs control), the “Elevation of 7-benylfluorescein O-debenzylation” value is listed as “about twice control values”. The values for the Cmax in series [5] (setting [11]), in [5] (setting [12]) and in [5] (setting [13]) were 1740 ± 733 ng/mL, 3650 ± 1220 ng/mL and 3740 ± 613 ng/mL, respectively. In addition, the half-life in series [5] (setting [11]) was 1.4 ± 0.3 h; in series [5] (setting [12]), 1.8 ± 0.1 h; in [5] (setting [13]), 2.6 ± 0.4 h; in series [7] (day 1), 4.2 h; in series [7] (day 18), 2.1 h. In addition, the values for the AUC in series [5] (setting [11]), in [5] (setting [12]) and in [5] (setting [13]) were 6150 ± 2930 ng·h/mL, 12900 ± 2710 ng·h/mL and 21900 ± 1690 ng·h/mL, respectively. The values for the Cytochrome c reductase in the series on Cytochrome c reductase (24 h after final dose) and in the series with Cytochrome c reductase (48 h after final dose) were 301 ± 19 and 244 ± 19, respectively. Besides, the “Methoxyresorufin O-demethylation” value at CYP1A2 [6] (24 h after final dose) is listed as 52 ± 4; on CYP1A2 [6] (48 h after final dose) it was 36 ± 1. In addition, the results for the AUC0-t in [7] (day 1) and in series [7] (day 18) were 9359 ng·h/mL and 6545 ng·h/mL, respectively. The “Dextromethorphan O-demethylation” value in the series with 8HUM liver microsomes [8] (24 h after final dose) turned out to be 726 ± 24; in the series with 8HUM liver microsomes [8] (48 h after final dose), 614 ± 28. In addition, the CYP3A4 induction entry in the series with CYP3A4 is “potent PXR activator and CYP3A4 inducer; also recorded: is a CYP3A4 inducer; also recorded: induction of CYP3A4”.

As to `CC(=O)N1CCN(c2ccc(OCC3COC(Cn4ccnc4)(c4ccc(Cl)cc4Cl)O3)cc2)CC1` (centres unmarked) [Ketoconazole, ketoconazole], the “Effect of prior ketoconazole on dabrafenib exposure (Cmax and AUC)” value in series [5] (rifampicin-treated female 8HUM mice, ketoconazole 20 mg/kg PO 30 min before dabrafenib) was “approximately doubling both the Cmax and AUC”. The “Caffeine (Paraxanthine) activity, percent of activity measured in the absence of inhibitor” value stood at 85 ± 34% at CYP1A2 [9] (8HUM microsomes […]) and 135 ± 45% on CYP1A2 [9] (HLM […]). Also, the results for the “Tolbutamide (OH-Tolbutamide) activity, percent of activity measured in the absence of inhibitor” value on CYP2C9 (8HUM microsomes […]) and at CYP2C9 (HLM […]) were 92 ± 11% and 154 ± 66%, respectively. The “Increase of midazolam AUC” value in series [10] was around 5 fold.

One may read the Km as the substrate concentration at which the rate is half of its maximum. One may read the half-life as the time in which the quantity being followed falls by half.
